The text below walks through data of publication PMC11554305, “Functional identification of soluble uric acid as an endogenous inhibitor of CD38” (eLife, 2024).

Assay [1] deals with T1, murine CD38 (Mus musculus, UniProt P56528).
T1 construct: from tissue; host or cells: WT ICR mouse tissues (brain, liver, lung, heart, kidney, spleen, ileum, skeletal muscle)
T1 sequence (P56528 1-304): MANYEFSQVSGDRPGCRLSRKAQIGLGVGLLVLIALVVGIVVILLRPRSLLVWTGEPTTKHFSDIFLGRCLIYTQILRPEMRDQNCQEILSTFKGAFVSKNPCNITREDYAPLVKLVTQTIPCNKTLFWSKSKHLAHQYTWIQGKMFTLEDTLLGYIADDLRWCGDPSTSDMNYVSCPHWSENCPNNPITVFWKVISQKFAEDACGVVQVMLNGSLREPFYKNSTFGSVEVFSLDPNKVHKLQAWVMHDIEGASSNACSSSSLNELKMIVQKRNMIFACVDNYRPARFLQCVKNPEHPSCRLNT
Kind of assay: CD38 hydrolase activity in tissues from WT mice. The class given is biochemical. Particulars: for Ki: WT mice, Figure 1E. The protocol:
(§1) The hydrolase activity of CD38 was measured according to a previous report ([de Oliveira et al., 2018]) with minor modifications. CD38 hydrolase activity was measured using 50 μM ε-NAD^+ as a substrate in hydrolase reaction buffer (250 mM sucrose, 40 mM Tris-HCl, pH 7.4). Briefly, cells or tissues were directly homogenized in blank reaction buffer on ice, and recombinant hCD38 was diluted in blank reaction buffer for subsequent assays. The tissue homogenates were centrifuged to collect the supernatant for enzyme assays. The loading volume of enzyme was 4–30 μL, the total volume of the reaction system was 3 mL. To detect enzyme inhibition, except when specified, the ligands were directly dissolved in hydrolase reaction buffer before pH adjustment, after which, the pH was immediately adjusted to 7.4. All reaction buffers, with or without ligands, were freshly prepared before each assay. For measurement of hydrolase activity, 3 mL reaction buffer containing enzyme, ε-NAD^+, and ligands at indicated concentrations was maintained at 37°C with constant stirring.
(§2) The reaction buffer for hydrolase or cyclase assays was excited at 300 nm, and fluorescence emission was measured every second at 410 nm by Shimazu RF-6000 spectrofluorometer. Hydrolase or cyclase activity was calculated from the linear portion of the time course by fitting a linear function to the data points recorded within 5 min.

For assay [2], the target named is T1, murine CD38. Kind of assay: CD38 cyclase activity in tissues from WT mice. The format is biochemical. Particulars: for Ki: WT mice, Figure 1E. The protocol: (§3) The cyclase activity of CD38 was measured as previously described ([Higashida et al., 1999]; [Jin et al., 2007]). CD38 cyclase activity was measured using 60 μM NGD as a substrate in cyclase reaction buffer (100 mM KCl, 10 μM CaCl2, and 50 mM Tris-HCl, pH 6.6). Tissues were cut into pieces and suspended in the buffer (5 mM MgCl2, 10 mM Tris-HCl, pH 7.3) at 4°C for 30 min. Then, the suspension was homogenized on ice, and the supernatant was collected after centrifugation. To collect the crude membrane fractions, the supernatant was centrifuged at 105,000×g for 30 min. The final pellet was resuspended in 10 mM Tris-HCl solution (pH 6.6) for cyclase assay. Homogenates of THP-1 or A549 cells, and recombinant hCD38 were used directly for cyclase assays. The loading volume of enzyme was 4–20 μL, the total volume of reaction system was 3 mL. To detect enzyme inhibition, except when specified, the ligands were directly dissolved in cyclase reaction buffer before pH adjustment, after which, the pH was immediately adjusted to 6.6. All reaction buffers, with or without ligands, were freshly prepared before each assay. For measurement of cyclase activity, 3 mL reaction buffer containing enzyme, NGD, and ligands at indicated concentrations was maintained at 37°C with constant stirring.
as §2

Another assay deals with CD38. Kind of assay: Hydrolase and cyclase activities of human and murine CD38. The format is biochemical. The protocol:
as §1, §3, §2
Guanosine was dissolved in DMSO and diluted in the reaction buffer for subsequent assays.
For reversibility test, recombinant hCD38 was pre-incubated for 30 min in four conditions: (1) control reaction buffer; (2) in the presence of 100 μM substrate (ε-NAD^+ or NGD); (3) 500 μM sUA; (4) both substrate and sUA. Subsequently, the enzyme was diluted 100-fold in reaction buffer in the presence or absence of 500 μM sUA for activity assays using ε-NAD^+ or NGD. Naïve THP-1 and A549 cells were incubated with RPMI-1640 medium in the presence or absence of 500 μM sUA for 2 hr. The cells were collected and homogenized in the reaction buffer on ice with or without 500 μM sUA, samples were then diluted 100-fold in reaction buffer with or without 500 μM sUA for enzyme assay. Control group was not treated with sUA in all steps; sUA group was treated with sUA in each step; sUA release group was treated with sUA prior to dilution in sUA-free buffer for enzyme assays.

A further assay concerns A549 cells. Description: Intracellular NAD+ assay in A549 cells. The class given is cell-based, human. Conditions: sUA 100 to 500 μM, 20 hr. The protocol:
A549 cells were seeded in 24-well plates for NAD^+ assay. Briefly, when the confluence reached 80%, the culture medium in each well was discarded, and the cells were washed twice with sterile PBS and incubated in RPMI-1640 medium containing 1% FBS in the presence or absence of sUA (from 100 to 500 μM) for 20 hr. Then, the cells were washed twice with sterile PBS, after the second washing, PBS was completely removed and 100 μL 5% ice-cold perchloric acid (PCA) was added into each well. The plate was kept on ice for 2 hr, then cell samples were collected and centrifuged at 15,000 rpm, 4°C for 10 min. The supernatant was used for subsequent handling and measurement (see LC-MS/MS analysis).
As mentioned above, samples (cells, tissues, blood, or reaction buffer) were treated with ice-cold PCA, after extraction and centrifugation, the collected supernatant was appropriately diluted in 5% ice-cold PCA when applicable, and then was vortexed for 30 s and centrifuged at 15,000 rpm, 4°C for 5 min. […] All the samples after handling were immediately analyzed in this study without freezing and thawing.
The LC-MS/MS system consisted of a triple quadrupole LCMS-8050 (Shimadzu) and an LC-30A system (Shimadzu). […] NAD^+ and NMN were measured independently in this study, as their peaks were hardly separated within a short time.

Setting [3] is: lung tissues from WT mice, OA 0–5 mM.

For `O=C(O)c1nc(=O)[nH]c(=O)[nH]1` [OA, oxonic acid, reference compound], the results for the IC50 against murine CD38 [1] (setting [3]) and against murine CD38 [2] (setting [3]) were 2200 µM and 4470 µM, respectively.

`O=c1[nH]cnc2c1ncn2[C@@H]1O[C@H](CO)[C@@H](O)[C@H]1O` [Inosine, inosine, reference compound]: the “Effect on hydrolase and cyclase activities of human and murine CD38” value with CD38 (sUA precursors and metabolite, above physiological levels, Figure 2B, C and supplement 1A–C) was “hardly inhibited”.

On to `O=c1[nH]c(=O)c2[nH]c(=O)[nH]c2[nH]1` [sUA, uric acid], for which the Ki (as a rule, a dissociation constant, usually derived from enzyme kinetics or from competition with a known ligand) at murine CD38 [1] (Brain) was determined as 83.5 µM; on murine CD38 [1] (Heart), 80.6 µM; on murine CD38 [1] (Ileum), 79.9 µM; on murine CD38 [1] (Kidney) it was 84.7 µM; at murine CD38 [1] (Liver), 77.3 µM; on murine CD38 [1] (Lung) it was 82.5 µM. Besides, the Ki at murine CD38 [1] (Skeletal muscle) came out at 83 µM; at murine CD38 [1] (Spleen) it was 70.5 µM; on murine CD38 [2] (Brain) it was 71.1 µM; at murine CD38 [2] (Heart) it was 70.9 µM; at murine CD38 [2] (Ileum) it was 72.1 µM; at murine CD38 [2] (Kidney), 78.2 µM. In addition, the Ki was 76.7 µM on murine CD38 [2] (Liver); 77 µM at murine CD38 [2] (Lung); 93.3 µM at murine CD38 [2] (Skeletal muscle); 78.1 µM on murine CD38 [2] (Spleen); 57.1 to 93.3 µM on CD38 (span over all enzyme sources). The “Intracellular NAD+” value in the assay with A549 cells is “boosted intracellular NAD^+”.
